Test system: mice
Assay: Safety and toxicity studies in mice
Format: in vivo
Conditions: 0.5, 1 and 2 g/kg
Procedure: The clinical dose of HT is in the range of 1-2000 mg/day, more preferably in the range of 5-500 mg/day and most preferably 10-100 mg/day.

OCCc1ccc(O)c(O)c1 [HT, hydroxytyrosol]
clinical or pathological toxicity: no clinical or pathological toxicity

Source: patent publication US20060177530A1, “Method of treating diabetes type II” (priority 2003, published 2006)
